Measured values published in PMC6413923 (Journal of medicinal chemistry, 2017).
Like-named read-outs stand apart in the source and are kept apart here. Blank lines part the entries; values can stand above or below the molecule they belong to.

Tests used:
[1] = test system: wild-type mice subjected to CLP; details: cited from earlier work
[2] = test system: lung myeloperoxidase (MPO); details: cited from earlier work
cytokines and chemokines = details: cited from earlier work
MMP-2 = MMP-2 (Homo sapiens, UniProt P08253); details: cited from earlier work; for Ki: read-out: Ki(app) MMP-2
Chain of MMP-2 (P08253 110-465 limits assumed): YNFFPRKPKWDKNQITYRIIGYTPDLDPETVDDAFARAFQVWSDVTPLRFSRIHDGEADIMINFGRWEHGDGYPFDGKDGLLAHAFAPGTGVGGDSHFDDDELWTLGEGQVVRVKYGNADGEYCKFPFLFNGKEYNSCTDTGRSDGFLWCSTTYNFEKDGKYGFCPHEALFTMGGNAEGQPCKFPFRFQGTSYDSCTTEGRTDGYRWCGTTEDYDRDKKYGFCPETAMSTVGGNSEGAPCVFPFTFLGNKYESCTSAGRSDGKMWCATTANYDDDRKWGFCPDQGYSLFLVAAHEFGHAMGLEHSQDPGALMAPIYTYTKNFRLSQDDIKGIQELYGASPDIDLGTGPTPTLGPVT

MMP-9 = MMP-9 (Homo sapiens, UniProt P14780); details: cited from earlier work; for Ki: read-out: Ki(app) MMP-9
Chain of MMP-9 (P14780 107-444 limits assumed): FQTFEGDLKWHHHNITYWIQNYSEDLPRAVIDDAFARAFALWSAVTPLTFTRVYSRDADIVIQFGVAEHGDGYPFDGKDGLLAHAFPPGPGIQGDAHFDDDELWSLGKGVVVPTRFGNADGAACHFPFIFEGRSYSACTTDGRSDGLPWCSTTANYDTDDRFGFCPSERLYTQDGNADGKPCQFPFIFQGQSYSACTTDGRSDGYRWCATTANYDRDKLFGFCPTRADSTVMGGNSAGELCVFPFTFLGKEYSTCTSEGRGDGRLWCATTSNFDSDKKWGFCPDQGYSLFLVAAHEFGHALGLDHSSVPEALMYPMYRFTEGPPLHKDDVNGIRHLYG

MT1-MMP = MT1-MMP (Homo sapiens, UniProt P50281); details: cited from earlier work
MMP-1 = biological target: T1, MMP-1 (Homo sapiens, UniProt P03956); details: in words; cited from earlier work
T1 sequence (P03956 100-469): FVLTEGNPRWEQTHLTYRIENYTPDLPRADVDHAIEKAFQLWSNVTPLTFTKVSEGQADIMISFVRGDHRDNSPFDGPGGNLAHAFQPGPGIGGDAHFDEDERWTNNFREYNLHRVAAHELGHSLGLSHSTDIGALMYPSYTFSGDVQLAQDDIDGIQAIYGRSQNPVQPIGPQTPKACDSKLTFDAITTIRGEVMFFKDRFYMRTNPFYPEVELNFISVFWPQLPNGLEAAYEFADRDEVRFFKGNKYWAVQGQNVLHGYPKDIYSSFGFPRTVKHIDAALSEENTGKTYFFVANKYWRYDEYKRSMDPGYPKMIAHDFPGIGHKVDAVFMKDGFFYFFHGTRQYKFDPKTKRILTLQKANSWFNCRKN

collagenolytic MMPs = details: in words, cited from earlier work
CD thermal transition = assay type: physicochemical; details: 25 °C, from thermal transition at 225 nm
[3] = first generation THPI; cited from earlier work

Molecule: COc1ccc(S(=O)(=O)N2Cc3ccccc3C[C@@H]2C(=O)NO)cc1 [(3R)-(+) - [2-(4-methoxy-benzenesulfonyl)-1,2,3,4-tetrahydroisoquinoline-3-hydroxamate]]
survival of CLP mice [1]: improved survival
whole lung MPO activity in CLP mice [2]: reduced whole lung MPO activity
IL-1β in CLP mice (cytokines and chemokines): significantly reduced
IL-6 in CLP mice (cytokines and chemokines): significantly reduced
MIP-1α in CLP mice (cytokines and chemokines): significantly reduced
TNF-α in CLP mice (cytokines and chemokines): significantly reduced

Molecule: (Gly-Pro-Hyp)4-Gly-mep-Flp-Gly-Pro-Gln-GlyΨ{PO2H-CH2}Leu-Ala-Gly-Gln-Arg-Gly-Ile-Arg-Gly-mep-Flp-(Gly-Pro-Hyp)4-Tyr-NH2 [α1(I-III)GlyΨ{PO2H-CH2}Leu THPI]
inhibition of MMP-2 (MMP-2; in words): effectively inhibits
inhibition of MMP-9 (MMP-9; in words): effectively inhibits
Ki (MT1-MMP; read-out: Ki MT1-MMP): 120 nM
inhibition of MMP-1 (MMP-1): effectively inhibits
selectivity toward collagenolytic MMPs (collagenolytic MMPs; first generation): selective toward collagenolytic MMPs
inhibition of MMPs (collagenolytic MMPs): low nanomolar range

Molecule: (Gly-Pro-Hyp)5-Gly-Arg-Ile-Gly-Phe~Leu-Arg-Thr-Gln-Gly-Val-Arg-(Gly-Pro-Hyp)5-Tyr-NH2 [FLRT]
% folded (CD thermal transition): 79%

Molecule: (Gly-Pro-Hyp)5-Gly-Arg-Ile-Gly-Phe~Leu-Asp-Pro-Gln-Gly-Val-Arg-(Gly-Pro-Hyp)5-Tyr-NH2 [FLDP]
% folded (CD thermal transition): 72%

Molecule: (Gly-Pro-Hyp)6-Gly-Pro-Gln-Gly~Ile-His-Lys-Gln-Arg-Gly-Val-Arg-(Gly-Pro-Hyp)5-NH2 [IHK]
% folded (CD thermal transition): 83%

Molecule: C6-(Gly-Pro-Hyp)4-Gly-Pro-Pro-GlyΨ{PO2H-CH2}Val-Val-Gly-Glu-Gln-Gly-Glu-Gln-Gly-Pro-Pro-(Gly-Pro-Hyp)4-NH2 [C6-α1(V)GlyΨ{PO2H-CH2}Val THPI]
Tm [3]: 25 °C
Ki (MMP-2; 10 °C): 4.14 ± 0.47 nM
Ki (MMP-2; 37 °C): 19.2 ± 0.64 nM
inhibition of full-length (82 kDa) MMP-9 versus TIMP-1 resistant (65 kDa) MMP-9 (MMP-9; comparison in words): similar
Ki (MMP-9; 10 °C): 1.76 ± 0.05 nM
Ki (MMP-9; 37 °C): 1.29 nM
inhibition of MT1-MMP (MT1-MMP): did not inhibit MT1-MMP
inhibition of MMPs (collagenolytic MMPs): low nanomolar range

Results, then the molecule that gave them:

% folded (CD thermal transition): 72%
Molecule: (Gly-Pro-Hyp)5-Gly-Arg-Ile-Gly-His~Leu-Arg-Thr-Gln-Gly-Val-Arg-(Gly-Pro-Hyp)5-Tyr-NH2 [HLRT]

% folded (CD thermal transition): 88%
Molecule: (Gly-Pro-Hyp)6-Gly-Pro-Gln-Gly~Ile-Tyr-Phe-Gln-Arg-Gly-Val-Arg-(Gly-Pro-Hyp)5-NH2 [IYF]

% folded (CD thermal transition): 87%
Molecule: (Gly-Pro-Hyp)6-Gly-Pro-Gln-Gly~Val-Gln-His-Gln-Arg-Gly-Val-Arg-(Gly-Pro-Hyp)5-NH2 [VQH]

% folded (CD thermal transition): 92%
Molecule: (Gly-Pro-Hyp)6-Gly-Pro-Gln-Gly~Val-Ser-Trp-Gln-Arg-Gly-Val-Arg-(Gly-Pro-Hyp)5-NH2 [VSW]
